# Data published in patent US4831027A, “Imidazo-benzoxazinones, the preparation thereof and pharmaceutical compositions containing these compounds” (Dr. Karl Thomae GmbH, priority 1986, dated 1989).
# Test system: anaesthetized cats
# Experiment: Determination of the effect on blood pressure and positive inotropic activity in anaesthetized cats
# Assay type: in vivo
# Details: 0.3 mg/kg i.v., average of 2 cats; for Diastolic blood pressure change: anaesthetized cats (sodium pentobarbital), pressure in aorta abdominalis; for Duration of effect (half life) / Increase of dp/dt (contractility parameter dp/dtmax): anaesthetized cats; for Increase of dp/dt (contractility parameter dp/dtmax): pressure in left ventricle, catheter-tip manometer
# Experimental: 1. Determination of the effect on blood pressure and positive inotropic activity in anaesthetized cats: The tests were carried out on cats which had been anaesthetized with sodium pentobarbital (40 mg/kg i.p. and 8 mg/kg/hour i.v.). The animals breathed spontaneously. The arterial blood pressure was measured in the aorta abdominalis using a Statham pressure transducer (P 23 Dc). To determine the positive inotropic activity the pressure in the left ventricle was measured using a catheter-tip manometer (Millar PC-350 A). From this, the contractility parameter dp/dtmax was obtained using an analogue differentiator. The test substance was injected into a vena femoralis. Polydiol 200 was used as solvent. The substance was tested on 2 cats, dosage 0.3 mg/kg i.v.
SMILES,Diastolic blood pressure change,Duration of effect (half life),Increase of dp/dt (contractility parameter dp/dtmax)
"CC1(C)OC(=O)Nc2cc3nc(-c4ccncc4)[nH]c3cc21 [A, 8,8-dimethyl-2-(4-pyridyl)-8-hydro-(5H)-imidazo[5,4-g][3,1]benzoxazin-6-one]",0 mmHg,18 min,+43%
"CCN1C(=O)OC(C)(C)c2cc3[nH]c(-c4ccncc4)nc3cc21 [B, 5-ethyl-8,8-dimethyl-2-(4-pyridyl)-8-hydro-(5H)imidazo[5,4-g][3,1]benzoxazin-6-one]",-21 mmHg,16 min,+52%
"CCCc1nc2cc3c(cc2[nH]1)C(C)(C)OC(=O)N3 [C, 8,8-dimethyl-2-n-propyl-8-hydro-(5H)-imidazo[5,4-g][3,1]benzoxazin-6-one]",-11 mmHg,11 min,+31%
"CCN1C(=O)OC(C)(C)c2cc3[nH]c(-c4ccco4)nc3cc21 [D, 5-ethyl-8,8-dimethyl-2-(2-furyl)-8-hydro-(5H)imidazo[5,4-g][3,1]benzoxazin-6-one]",-37 mmHg,4 min,+41%
"CC1(C)OC(=O)Nc2cc3nc(-c4ccco4)[nH]c3cc21 [E, 8,8-dimethyl-2-(2-furyl)-8-hydro-(5H)-imidazo[5,4-g][3,1]benzoxazin-6-one]",-16 mmHg,7 min,+31%
"CC1(C)OC(=O)Nc2cc3nc(-c4cccs4)[nH]c3cc21 [F, 8,8-dimethyl-2-(2-thienyl)-8-hydro-(5H)-imidazo[5,4-g][3,1]benzoxazin-6-one]",-24 mmHg,10 min,+28%
